PubChem BioAssay AID1963436 (Molecular Pharmacology Branch, DTP, NCI, 2024)

Test system: OVCAR-5 complex spheroid (HUVEC/MSC), viability % T/C
Test: Anticancer human tumor OVCAR-5 cell line growth inhibition [Asc];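 note: spheroids exposed to agents for 7 days before readout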;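 for viability, T/C: 100% = DMSO vehicle-treated wells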
Conditions: for IC50: curve of first compound; for viability, T/C: stronger effect = lower value
Summary of the method: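 Tumor cells were grown as complex spheroids with human endothelial cells (HUVEC) and human mesenchymal stem cells as stroma. Agents were tested alone and in combination, in half-log steps down from the clinical Cmax, or from 10 microM where Cmax was unknown.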

NC(=O)C(=Cn1cnc(-c2cc(C(F)(F)F)cc(C(F)(F)F)c2)n1)c1cncnc1 + CCN1C(C(=O)NC23CCC(C(=O)O)(CC2)CC3)C(c2cccc(Cl)c2F)C2(C(=O)Nc3cc(Cl)ccc32)C12CCCCC2
IC50 (second compound 0.03 µM): 299 nM | IC50 (second compound 0.0949 µM): > 300 nM | IC50 (second compound 0.3 µM): 256 nM | IC50 (second compound 0.949 µM): > 300 nM | IC50 (second compound 3 µM): 216 nM | viability, T/C (second compound 0.03 µM, first compound 0.000949 µM): 95.8% | viability, T/C (second compound 0.03 µM, first compound 0.003 µM): 85.5% | viability, T/C (second compound 0.03 µM, first compound 0.00949 µM): 82.1% | viability, T/C (second compound 0.03 µM, first compound 0.03 µM): 76.5% | viability, T/C (second compound 0.03 µM, first compound 0.0949 µM): 71.2% | viability, T/C (second compound 0.03 µM, first compound 0.3 µM): 48.1% | viability, T/C (second compound 0.0949 µM, first compound 0.000949 µM): 93.9% | viability, T/C (second compound 0.0949 µM, first compound 0.003 µM): 99.9% | viability, T/C (second compound 0.0949 µM, first compound 0.00949 µM): 81.9% | viability, T/C (second compound 0.0949 µM, first compound 0.03 µM): 67.3% | viability, T/C (second compound 0.0949 µM, first compound 0.0949 µM): 67.8% | viability, T/C (second compound 0.0949 µM, first compound 0.3 µM): 48.2% | viability, T/C (second compound 0.3 µM, first compound 0.000949 µM): 79.1% | viability, T/C (second compound 0.3 µM, first compound 0.003 µM): 95.8% | viability, T/C (second compound 0.3 µM, first compound 0.00949 µM): 86.9% | viability, T/C (second compound 0.3 µM, first compound 0.03 µM): 72% | viability, T/C (second compound 0.3 µM, first compound 0.0949 µM): 70.2% | viability, T/C (second compound 0.3 µM, first compound 0.3 µM): 46.7% | viability, T/C (second compound 0.949 µM, first compound 0.000949 µM): 103% | viability, T/C (second compound 0.949 µM, first compound 0.003 µM): 108% | viability, T/C (second compound 0.949 µM, first compound 0.00949 µM): 87.4% | viability, T/C (second compound 0.949 µM, first compound 0.03 µM): 81.4% | viability, T/C (second compound 0.949 µM, first compound 0.0949 µM): 66.2% | viability, T/C (second compound 0.949 µM, first compound 0.3 µM): 53.3% | viability, T/C (second compound 3 µM, first compound 0.000949 µM): 98.5% | viability, T/C (second compound 3 µM, first compound 0.003 µM): 96.7% | viability, T/C (second compound 3 µM, first compound 0.00949 µM): 80% | viability, T/C (second compound 3 µM, first compound 0.03 µM): 69.7% | viability, T/C (second compound 3 µM, first compound 0.0949 µM): 61.8% | viability, T/C (second compound 3 µM, first compound 0.3 µM): 45.4%

Cc1nc(N2CCC3(CC2)COC(C)C3N)c(CO)nc1Sc1ccnc(N)c1Cl (stereo not given) + CNC(C)C(=O)NC1CN(S(=O)(=O)c2cccc(S(=O)(=O)N3CCC4CCC(C(=O)NC(c5ccccc5)c5ccccc5)N4C(=O)C(NC(=O)C(C)NC)C3)c2)CCC2CCC(C(=O)NC(c3ccccc3)c3ccccc3)N2C1=O
IC50 (second compound 0.01 µM): > 3000 nM | IC50 (second compound 0.0316 µM): > 3000 nM | IC50 (second compound 0.1 µM): > 3000 nM | IC50 (second compound 0.316 µM): > 3000 nM | IC50 (second compound 1 µM): 2510 nM | viability, T/C (second compound 0.01 µM, first compound 0.00949 µM): 98.5% | viability, T/C (second compound 0.01 µM, first compound 0.03 µM): 91% | viability, T/C (second compound 0.01 µM, first compound 0.0949 µM): 85% | viability, T/C (second compound 0.01 µM, first compound 0.3 µM): 77.7% | viability, T/C (second compound 0.01 µM, first compound 0.949 µM): 68.3% | viability, T/C (second compound 0.01 µM, first compound 3 µM): 63.8% | viability, T/C (second compound 0.0316 µM, first compound 0.00949 µM): 84.5% | viability, T/C (second compound 0.0316 µM, first compound 0.03 µM): 92.3% | viability, T/C (second compound 0.0316 µM, first compound 0.0949 µM): 76.1% | viability, T/C (second compound 0.0316 µM, first compound 0.3 µM): 66.7% | viability, T/C (second compound 0.0316 µM, first compound 0.949 µM): 63.2% | viability, T/C (second compound 0.0316 µM, first compound 3 µM): 56.2% | viability, T/C (second compound 0.1 µM, first compound 0.00949 µM): 84% | viability, T/C (second compound 0.1 µM, first compound 0.03 µM): 82.3% | viability, T/C (second compound 0.1 µM, first compound 0.0949 µM): 76.7% | viability, T/C (second compound 0.1 µM, first compound 0.3 µM): 61.4% | viability, T/C (second compound 0.1 µM, first compound 0.949 µM): 58.8% | viability, T/C (second compound 0.1 µM, first compound 3 µM): 52.1% | viability, T/C (second compound 0.316 µM, first compound 0.00949 µM): 82.7% | viability, T/C (second compound 0.316 µM, first compound 0.03 µM): 74.6% | viability, T/C (second compound 0.316 µM, first compound 0.0949 µM): 64.4% | viability, T/C (second compound 0.316 µM, first compound 0.3 µM): 62.1% | viability, T/C (second compound 0.316 µM, first compound 0.949 µM): 51.9% | viability, T/C (second compound 0.316 µM, first compound 3 µM): 55.2% | viability, T/C (second compound 1 µM, first compound 0.00949 µM): 82.7% | viability, T/C (second compound 1 µM, first compound 0.03 µM): 80.8% | viability, T/C (second compound 1 µM, first compound 0.0949 µM): 71.7% | viability, T/C (second compound 1 µM, first compound 0.3 µM): 64.4% | viability, T/C (second compound 1 µM, first compound 0.949 µM): 60.2% | viability, T/C (second compound 1 µM, first compound 3 µM): 47.7%
